Measurements taken from patent publication US11178873B2, “Cyclic N-carboxamide compounds useful as herbicides” (FMC CORPORATION, priority 2015, dated 2021).

Experiments:
Type in all cases: in vivo
Details in all cases: 1000 g ai/ha, 0 to 100 scale, 0 no effect, 100 complete control
[1] = tested on: barnyardgrass (Echinochloa crus-galli); experiment: Test A preemergence, barnyardgrass
Source text: (§1) Seeds of plant species selected from barnyardgrass (Echinochloa crus-galli), crabgrass, large (large crabgrass, Digitaria sanguinalis), kochia (Kochia scoparia), ragweed (common ragweed, Ambrosia elatior), morningglory (Ipomoea spp.), velvetleaf (Abutilon theophrasti), ryegrass, Italian (Italian ryegrass, Lolium multiflorum), foxtail, giant (giant foxtail, Setaria faberii), wheat (Triticum aestivum), corn (Zea mays), and pigweed (Amaranthus retroflexus), were planted into a blend of loam soil and sand and treated preemergence with a directed soil spray using test chemicals formulated in a non-phytotoxic solvent mixture which included a surfactant. At the same time, plants selected from these crop and weed species and also blackgrass (Alopecurus myosuroides), and galium (catchweed bedstraw, Galium aparine), were planted in pots containing the same blend of loam soil and sand and treated with postemergence applications of test chemicals formulated in the same manner. Plants ranged in height from 2 to 10 cm and were in the one- to two-leaf stage for the postemergence treatment. Treated plants and untreated controls were maintained in a greenhouse for approximately 10 d, after which time all treated plants were compared to untreated controls and visually evaluated for injury. Plant response ratings, summarized in Table A, are based on a 0 to 100 scale where 0 is no effect and 100 is complete control. A dash (-) response means no test result.

kochia (Kochia scoparia) [2] = experiment: Test A preemergence, kochia
Source text: as §1

[3] = tested on: ragweed (common ragweed, Ambrosia elatior); experiment: Test A preemergence, ragweed
Source text: as §1

[4] = tested on: ryegrass, Italian (Italian ryegrass, Lolium multiflorum); experiment: Test A preemergence, ryegrass, Italian
Source text: as §1

[5] = tested on: foxtail, giant (giant foxtail, Setaria faberii); experiment: Test A preemergence, foxtail, giant
Source text: as §1

[6] = tested on: pigweed (Amaranthus retroflexus); experiment: Test A preemergence, pigweed
Source text: as §1

[7] = tested on: barnyardgrass (Echinochloa crus-galli); experiment: Test A postemergence, barnyardgrass
Source text: as §1

kochia (Kochia scoparia) [8] = experiment: Test A postemergence, kochia
Source text: as §1

[9] = tested on: ragweed (common ragweed, Ambrosia elatior); experiment: Test A postemergence, ragweed
Source text: as §1

[10] = tested on: ryegrass, Italian (Italian ryegrass, Lolium multiflorum); experiment: Test A postemergence, ryegrass, Italian
Source text: as §1

[11] = tested on: foxtail, giant (giant foxtail, Setaria faberii); experiment: Test A postemergence, foxtail, giant
Source text: as §1

[12] = tested on: wheat (Triticum aestivum); experiment: Test A postemergence, wheat
Source text: as §1

corn (Zea mays) = experiment: Test A postemergence, corn
Source text: as §1

[13] = tested on: pigweed (Amaranthus retroflexus); experiment: Test A postemergence, pigweed
Source text: as §1

[14] = tested on: blackgrass (Alopecurus myosuroides); experiment: Test A postemergence, blackgrass
Source text: as §1

[15] = tested on: galium (catchweed bedstraw, Galium aparine); experiment: Test A postemergence, galium
Source text: as §1

## Cc1ccc(C2CCC(=O)N2C(=O)Nc2ccccc2F)cc1 (stereo not shown) [Compound 19]
[1]
  Plant response rating, Barnyardgrass: 40
Kochia (Kochia scoparia) [2]
  Plant response rating, Kochia: 20
[3]
  Plant response rating, Ragweed: 0
[4]
  Plant response rating, Ryegrass, Italian: 0
[5]
  Plant response rating, Foxtail, Giant: 40
[6]
  Plant response rating, Pigweed: 70
[7]
  Plant response rating, Barnyardgrass: 0
Kochia (Kochia scoparia) [8]
  Plant response rating, Kochia: 0
[9]
  Plant response rating, Ragweed: 0
[10]
  Plant response rating, Ryegrass, Italian: 0
[11]
  Plant response rating, Foxtail, Giant: 0
[12]
  Plant response rating, Wheat: 0
Corn (Zea mays)
  Plant response rating, Corn: 0
[13]
  Plant response rating, Pigweed: 0
[14]
  Plant response rating, Blackgrass: 0
[15]
  Plant response rating, Galium: 0

## Cc1ccc(C2CCC(=O)N2C(=O)Nc2ccc(F)c(F)c2F)cc1 (stereo not shown) [Compound 21]
[1]
  Plant response rating, Barnyardgrass: 20
Kochia (Kochia scoparia) [2]
  Plant response rating, Kochia: 0
[3]
  Plant response rating, Ragweed: 0
[4]
  Plant response rating, Ryegrass, Italian: 0
[5]
  Plant response rating, Foxtail, Giant: 70
[6]
  Plant response rating, Pigweed: 0
[7]
  Plant response rating, Barnyardgrass: 0
Kochia (Kochia scoparia) [8]
  Plant response rating, Kochia: 0
[9]
  Plant response rating, Ragweed: 0
[10]
  Plant response rating, Ryegrass, Italian: 0
[11]
  Plant response rating, Foxtail, Giant: 0
[12]
  Plant response rating, Wheat: 0
Corn (Zea mays)
  Plant response rating, Corn: 0
[13]
  Plant response rating, Pigweed: 0
[14]
  Plant response rating, Blackgrass: 0
[15]
  Plant response rating, Galium: 0

## CN1CC(c2ccc(C(F)(F)F)cc2)N(C(=O)Nc2cccc(F)c2F)C1=O (stereo not shown) [Compound 14]
[1]
  Plant response rating, Barnyardgrass: 20
Kochia (Kochia scoparia) [2]
  Plant response rating, Kochia: 0
[3]
  Plant response rating, Ragweed: 0
[4]
  Plant response rating, Ryegrass, Italian: 0
[5]
  Plant response rating, Foxtail, Giant: 70
[6]
  Plant response rating, Pigweed: 0
[7]
  Plant response rating, Barnyardgrass: 0
Kochia (Kochia scoparia) [8]
  Plant response rating, Kochia: 0
[9]
  Plant response rating, Ragweed: 0
[10]
  Plant response rating, Ryegrass, Italian: 0
[11]
  Plant response rating, Foxtail, Giant: 0
[12]
  Plant response rating, Wheat: 0
Corn (Zea mays)
  Plant response rating, Corn: 0
[13]
  Plant response rating, Pigweed: 0
[14]
  Plant response rating, Blackgrass: 0
[15]
  Plant response rating, Galium: 0

## Cc1ccc(C2CCC(=O)N2C(=O)Nc2ccccc2C(F)(F)F)cc1 (stereo not shown) [Compound 20]
[1]
  Plant response rating, Barnyardgrass: 0
Kochia (Kochia scoparia) [2]
  Plant response rating, Kochia: 0
[3]
  Plant response rating, Ragweed: 0
[4]
  Plant response rating, Ryegrass, Italian: 0
[5]
  Plant response rating, Foxtail, Giant: 20
[6]
  Plant response rating, Pigweed: 0
[7]
  Plant response rating, Barnyardgrass: 0
Kochia (Kochia scoparia) [8]
  Plant response rating, Kochia: 0
[9]
  Plant response rating, Ragweed: 0
[10]
  Plant response rating, Ryegrass, Italian: 0
[11]
  Plant response rating, Foxtail, Giant: 0
[12]
  Plant response rating, Wheat: 0
Corn (Zea mays)
  Plant response rating, Corn: 0
[13]
  Plant response rating, Pigweed: 0
[14]
  Plant response rating, Blackgrass: 0
[15]
  Plant response rating, Galium: 0
